Tests used:
Conditions in all cases: treatment: drug alone; 5 days
769-P [1] = assay: minimum viability across doses, drug alone, relative to DMSO (fraction); higher = less growth inhibition
Experimental: (§1)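 Primary HTS: 8 RCC cell lines treated with 8 doses (up to 10 uM) of each library drug alone for 5 days; viability read by CellTiter-Glo and normalised to DMSO. GI50 was fitted with XLfit (4-parameter), AUC is the area under the dose-response curve, and minimum viability is the lowest fraction of DMSO viability across doses.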

SN12C [2] = assay: as above
Experimental: as §1

ACHN [3] = assay: as above
Experimental: as §1

786-O [4] = assay: as above
Experimental: as §1

UO-31 [5] = assay: as above
Experimental: as §1

CAKI-1 [6] = assay: as above
Experimental: as §1

TK-10 [7] = assay: as above
Experimental: as §1

A498 [8] = assay: as above
Experimental: as §1

769-P [9] = assay: GI50, drug alone; higher = less potent
Experimental: as §1

SN12C [10] = assay: GI50, drug alone; higher = less potent
Experimental: as §1

ACHN [11] = assay: GI50, drug alone; higher = less potent
Experimental: as §1

786-O [12] = assay: GI50, drug alone; higher = less potent
Experimental: as §1

UO-31 [13] = assay: GI50, drug alone; higher = less potent
Experimental: as §1

CAKI-1 [14] = assay: GI50, drug alone; higher = less potent
Experimental: as §1

TK-10 [15] = assay: GI50, drug alone; higher = less potent
Experimental: as §1

A498 [16] = assay: GI50, drug alone; higher = less potent
Experimental: as §1

769-P [17] = assay: AUC of dose-response viability curve, drug alone (arbitrary (AUC of normalised viability)); higher = less growth inhibition
Experimental: as §1

SN12C [18] = assay: as above
Experimental: as §1

ACHN [19] = assay: as above
Experimental: as §1

786-O [20] = assay: as above
Experimental: as §1

UO-31 [21] = assay: as above
Experimental: as §1

CAKI-1 [22] = assay: as above
Experimental: as §1

TK-10 [23] = assay: as above
Experimental: as §1

A498 [24] = assay: as above
Experimental: as §1

Row | Structure (SMILES) | minimum viability across doses (769-P [1]) | minimum viability across doses (SN12C [2]) | minimum viability across doses (ACHN [3]) | minimum viability across doses (786-O [4]) | minimum viability across doses (UO-31 [5]) | minimum viability across doses (CAKI-1 [6]) | minimum viability across doses (TK-10 [7]) | minimum viability across doses (A498 [8]) | GI50, drug alone (769-P [9]) [µM] | GI50, drug alone (SN12C [10]) [µM] | GI50, drug alone (ACHN [11]) [µM] | GI50, drug alone (786-O [12]) [µM] | GI50, drug alone (UO-31 [13]) [µM] | GI50, drug alone (CAKI-1 [14]) [µM] | GI50, drug alone (TK-10 [15]) [µM] | GI50, drug alone (A498 [16]) [µM] | AUC of dose-response viability curve (769-P [17]) | AUC of dose-response viability curve (SN12C [18]) | AUC of dose-response viability curve (ACHN [19]) | AUC of dose-response viability curve (786-O [20]) | AUC of dose-response viability curve (UO-31 [21]) | AUC of dose-response viability curve (CAKI-1 [22]) | AUC of dose-response viability curve (TK-10 [23]) | AUC of dose-response viability curve (A498 [24])
1 | CNC(=O)CN1CCC(Oc2cc3c(Nc4cccc(Cl)c4F)ncnc3cc2OC)CC1 [AZD8931] | 0.336 | 0.696 | 0.323 | 0.474 | 0.785 | 0.576 | 0.333 | 0.994 | 1.15 | > 10 | 0.609 | > 10 | > 10 | > 10 | 1.21 | > 10 | 2.32 | 3.06 | 2.08 | 2.67 | 3.56 | 2.86 | 2.35 | 4.39
2 | CC[C@@H]1C(=O)N(C)c2cnc(Nc3ccc(C(=O)N[C@H]4CC[C@H](N5CCN(CC6CC6)CC5)CC4)cc3OC)nc2N1C(C)C [BI6727 (Volasertib)] | 0.0308 | 0.0643 | 0.0122 | 0.00304 | 0.012 | 0.0881 | 0.0289 | 0.0429 | 0.126 | 0.123 | 0.13 | 0.0123 | 0.0581 | 0.157 | 0.293 | 2.03 | 1.66 | 1.71 | 1.87 | 0.673 | 2.07 | 2.01 | 1.93 | 2.78
3 | O=C1NC(=O)/C(=C/c2ccc3c(c2)OC(F)(F)O3)S1 | 0.947 | 0.775 | 0.93 | 0.474 | 0.92 | 0.98 | 0.858 | 0.83 | > 10 | > 10 | > 10 | > 10 | > 10 | > 10 | > 10 | > 10 | 3.5 | 3.07 | 3.46 | 2.35 | 4.4 | 3.54 | 3.24 | 3.81
4 | CCCS(=O)(=O)Nc1ccc(F)c(C(=O)c2c[nH]c3ncc(Cl)cc23)c1F [PLX-4720] | 0.817 | 0.875 | 0.197 | 0.335 | 0.944 | 0.278 | 0.574 | 0.885 | > 10 | > 10 | 2.46 | 4.86 | > 10 | 7.55 | > 10 | > 10 | 3.18 | 3.44 | 2.57 | 2.5 | 4.19 | 3.33 | 3.13 | 4.12
5 | CO[C@H]1C[C@@H]2CC[C@@H](C)[C@@](O)(O2)C(=O)C(=O)N2CCCC[C@H]2C(=O)O[C@H]([C@H](C)C[C@@H]2CC[C@@H](OCCO)[C@H](OC)C2)CC(=O)[C@H](C)/C=C(\C)[C@@H](O)[C@@H](OC)C(=O)[C@H](C)C[C@H](C)/C=C/C=C/C=C/1C [Everolimus (RAD001)] | 0.56 | 0.631 | 0.39 | 0.293 | 0.314 | 0.406 | 0.538 | 0.851 | > 10 | > 10 | 0.278 | 0.00385 | 0.0992 | 1.18 | > 10 | > 10 | 2.37 | 2.56 | 1.85 | 1.21 | 1.96 | 2.14 | 2.3 | 3.45
6 | CCN1CCN(C(=O)Cc2ccc(Nc3ncc(F)c(Nc4ccc(C(=O)Nc5ccccc5Cl)cc4)n3)cc2)CC1 [Aurora A Inhibitor I] | 0.0238 | 0.465 | 0.062 | 0.0582 | 0.327 | 0.00638 | 0.481 | 0.871 | 2.03 | 5.34 | 0.557 | 0.234 | 9.23 | 0.98 | 4.41 | > 10 | 2.75 | 2.95 | 2.17 | 1.75 | 3.82 | 2.49 | 2.7 | 4.05
7 | CN(C)Cc1cccc(N/C(=C2\C(=O)Nc3cc(C(=O)N(C)C)ccc32)c2ccccc2)c1 | 0.867 | 0.382 | 0.127 | 0.524 | 0.605 | 0.12 | 0.481 | 1.14 | > 10 | 8.69 | 2.67 | > 10 | 9.91 | 4 | 9.6 | > 10 | 3.43 | 3.05 | 2.8 | 2.81 | 4.64 | 3.08 | 2.94 | 4.62
8 | O=C(O)[C@]1(Cc2cccc(Nc3nccs3)n2)CC[C@@H](Oc2cccc(Cl)c2F)CC1 [MK-5108 (VX-689)] | 0.179 | 0.154 | 0.262 | 0.00733 | 0.0125 | 0.419 | 0.404 | 0.41 | 2.61 | 1.32 | 0.854 | 0.0304 | 0.908 | 3.25 | 3.19 | 3.72 | 3.08 | 2.46 | 2.35 | 1.01 | 3.38 | 2.88 | 2.65 | 3.44
9 | C=CC(=O)Nc1cccc(Sc2nc(Nc3ccc(N4CCN(C)CC4)cc3)ncc2Cl)c1 [WZ8040] | 0.0235 | 0.00541 | 0.0112 | 0.00441 | 0.0196 | 0.00227 | 0.024 | 0.282 | 2.96 | 4.06 | 1.28 | 2.91 | 8.21 | 2.31 | 2.09 | 9.25 | 2.81 | 2.85 | 2.45 | 2.46 | 3.39 | 2.51 | 2.42 | 3.77
10 | COc1cccc(-c2cc(=O)c3ccccc3o2)c1N | 0.903 | 0.873 | 0.861 | 0.69 | 1.36 | 0.83 | 0.817 | 1.03 | > 10 | > 10 | > 10 | > 10 | > 10 | > 10 | > 10 | > 10 | 3.39 | 3.4 | 3.35 | 2.79 | 5.36 | 3.19 | 3.09 | 4.28
11 | COc1cc2nccc(Oc3ccc(NC(=O)NC4CC4)c(Cl)c3)c2cc1C(N)=O [E7080 (Lenvatinib)] | 0.907 | 0.734 | 0.532 | 0.786 | 1.18 | 0.267 | 0.806 | 0.941 | > 10 | > 10 | > 10 | > 10 | > 10 | 2.27 | > 10 | > 10 | 3.46 | 3.21 | 3.06 | 3.13 | 2.25 | 2.71 | 3.24 | 3.79
12 | S=C(NCc1ccc2c(c1)OCO2)N1CCN(c2ncnc3c2oc2ccccc23)CC1 [Amuvatinib (MP-470)_R2] | 0.578 | 0.0284 | 0.151 | 0.0372 | 0.0813 | 0.749 | 0.198 | 0.131 | > 10 | 1.56 | 2.42 | 0.00825 | 2.57 | > 10 | 2.27 | 4.19 | 3.38 | 2.51 | 2.69 | 1.54 | 3.43 | 3.34 | 2.19 | 3.12
13 | COc1cc2ncnc(Nc3ccc(F)c(Cl)c3)c2cc1OCCCN1CCOCC1 [Gefitinib (Iressa)] | 0.536 | 0.693 | 0.179 | 0.781 | 0.872 | 0.281 | 0.269 | 1.05 | > 10 | > 10 | 1.24 | > 10 | > 10 | 5.88 | 1.52 | > 10 | 2.66 | 3.15 | 2.4 | 3.22 | 4.31 | 3.04 | 2.43 | 4.53
14 | O=c1cc(N2CCOCC2)oc2c(-c3ccccc3)cccc12 | 0.617 | 0.765 | 0.723 | 0.559 | 0.858 | 0.642 | 0.684 | 0.929 | > 10 | > 10 | > 10 | > 10 | > 10 | > 10 | > 10 | > 10 | 3.1 | 3.36 | 2.91 | 2.62 | 3.98 | 3.37 | 2.97 | 3.75
15 | O=C(c1ccc(/C=C/c2n[nH]c3ccccc23)cc1)N1CCNCC1 [KW 2449] | 0.549 | 0.241 | 0.215 | 0.814 | 0.86 | 0.268 | 0.645 | 0.828 | > 10 | 4.76 | 2.12 | > 10 | > 10 | 3.54 | > 10 | > 10 | 3.12 | 3.03 | 2.67 | 3.77 | 4.33 | 2.93 | 3.23 | 3.72
16 | Cc1ccc(S(=O)(=O)Nc2nc3ccccc3nc2Nc2ccc3nsnc3c2)cc1 [XL147] | 0.884 | 0.92 | 0.811 | 0.768 | 1.13 | 1.03 | 0.902 | 0.933 | > 10 | > 10 | > 10 | > 10 | > 10 | > 10 | > 10 | > 10 | 3.3 | 3.52 | 3.19 | 3.2 | 4.38 | 3.82 | 3.52 | 3.61

— the supplement of paper PMC8149375
